Read-outs that look alike come from different tables or passages of the source. Each block holds one compound with its values, some of them ahead of it. Non-standard residues stand in square brackets, D forms with d. Residues, ends and D or L forms follow the SMILES beside them. Aoe = N[C@@H](CCCCCC(=O)[C@@H]1CO1)C(=O)O
Tests used:
MM.1S cells [1] = test: MTT assay with niltubacin or HDAC6 siRNA, with or without bortezomib; assay type: cell-based, human; details: niltubacin 2.5 and 5 μM, 5 nM bortezomib
Protocol: The inhibitory effect of bortezomib and/or tubacin on MM cell growth was assessed by measuring 3-(4,5-dimethylthiazol-2-yl)-2,5-diphenyl tetrazolium bromide (MTT) dye absorbance, as described previously (33). […] All experiments were performed in quadruplicate.
MM.1S cells were transiently transfected with HDAC6 siRNA (Dharmacon Inc., Lafayette, Colo.) using “Cell Line Nucleofecto™ Kit V,” according to manufacturer's (Amaxa Biosystems, Gaithersburg, Md.) instructions (33). Following transfection, MM.1S cells were subjected to Western blotting and MTT assay, in the presence or absence of bortezomib.

HDAC6 [2] = target: T1, HDAC6 (Homo sapiens, UniProt Q9UBN7); test: Western blotting with anti-acetylated lysine / HDAC6 Abs; assay type: cell-based; parameters: MM.1S, U266, INA-6, RPMI8226, and RPMI-LR5 MM cell lines constitutively express HDAC6; endogenous in cells; host or cells: MM.1S, RPMI8226 and other MM cell lines; MM patient BMPCs/PBMCs; details: niltubacin 2.5 and 5 μM, 24 h, MM.1S cells
T1 sequence (Q9UBN7 1-1215): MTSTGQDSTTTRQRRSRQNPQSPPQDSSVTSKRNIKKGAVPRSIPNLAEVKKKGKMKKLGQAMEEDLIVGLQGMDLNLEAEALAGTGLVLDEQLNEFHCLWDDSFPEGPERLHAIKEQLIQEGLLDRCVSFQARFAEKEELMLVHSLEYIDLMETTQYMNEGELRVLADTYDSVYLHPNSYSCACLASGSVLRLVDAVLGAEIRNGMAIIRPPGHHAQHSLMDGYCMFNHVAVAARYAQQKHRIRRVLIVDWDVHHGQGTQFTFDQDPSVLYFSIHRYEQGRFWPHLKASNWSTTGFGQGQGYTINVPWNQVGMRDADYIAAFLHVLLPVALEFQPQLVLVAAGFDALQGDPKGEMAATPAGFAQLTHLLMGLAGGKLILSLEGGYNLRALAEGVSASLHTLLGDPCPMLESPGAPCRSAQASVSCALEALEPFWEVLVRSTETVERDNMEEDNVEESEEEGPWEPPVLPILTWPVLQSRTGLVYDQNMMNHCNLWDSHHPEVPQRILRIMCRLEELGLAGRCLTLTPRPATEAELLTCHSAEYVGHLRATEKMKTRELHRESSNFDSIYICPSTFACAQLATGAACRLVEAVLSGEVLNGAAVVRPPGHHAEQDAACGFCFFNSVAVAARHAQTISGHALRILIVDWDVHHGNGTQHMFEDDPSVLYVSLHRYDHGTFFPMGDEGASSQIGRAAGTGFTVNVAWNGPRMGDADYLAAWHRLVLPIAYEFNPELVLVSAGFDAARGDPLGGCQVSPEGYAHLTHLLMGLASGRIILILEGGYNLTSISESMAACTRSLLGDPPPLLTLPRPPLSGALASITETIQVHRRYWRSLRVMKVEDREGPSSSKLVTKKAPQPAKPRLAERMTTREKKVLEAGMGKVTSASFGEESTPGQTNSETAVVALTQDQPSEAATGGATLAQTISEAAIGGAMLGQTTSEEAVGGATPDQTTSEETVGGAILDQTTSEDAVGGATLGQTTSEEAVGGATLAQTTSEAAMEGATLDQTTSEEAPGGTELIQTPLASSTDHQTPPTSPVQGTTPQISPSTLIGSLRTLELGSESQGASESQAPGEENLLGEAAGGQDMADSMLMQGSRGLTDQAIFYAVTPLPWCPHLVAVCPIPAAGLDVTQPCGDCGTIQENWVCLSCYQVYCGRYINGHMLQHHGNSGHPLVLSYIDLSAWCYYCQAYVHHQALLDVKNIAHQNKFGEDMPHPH
Protocol: (§1) MM cells were cultured with Velcade and/or Tubacin; harvested; washed; and lysed using lysis buffer: 50 mM Tris-HCl (pH 7.4), 150 mM NaCl, 1% NP-40, 5 mM EDTA, 5 mM NaF, 2 mM Na3VO4, 1 mM PMSF, 5 μg/ml leupeptine, and 5 μg/ml aprotinin. Cell lysates were subjected to SDS-PAGE, transferred to PVDF membrane (Bio-Rad Laboratories, Hercules, Calif.), and immunoblotted with Abs against specific proteins.
(§2) Cells cultured with tubacin and/or bortezomib were harvested; washed, and lysed using lysis buffer: 50 mM Tris-HCl (pH 7.4), 150 mM NaCl, 1% NP-40, 5 mM EDTA, 5 mM NaF, 1 mM Na3VO4, 1 mM PMSF, 5 μg/ml leupeptine, and 5 μg/ml aprotinin. Whole cell lysates were subjected to SDS-PAGE, transferred to nitrocellulose membrane (Bio-Rad Laboratories, Hercules, Calif.), and immunoblotted with specific Abs (31). Western blotting was done using anti-HDAC6, acetylated lysine, acetylated histone H3, acetylated histone H4, ubiquitin (Ub), phospho-SAPK (JNK), caspase-8 caspase-9, caspase-3, and PARP Abs (Cell Signaling, Beverly, Mass.); with anti-α-tubulin Ab (Santa Cruz Biotechnology, Santa Cruz, Calif.); as well as with anti-dynein Ab (Sigma, Saint Louis, Mo.). For immunoprecipitation, whole cell lysates were incubated with anti-Ub or dynein Abs overnight at 4° C., and then incubated with protein A/G PLUS-Agarose (Santa Cruz Biotechnology) for 2 h at 4° C., as in our prior study (31). Immunoprecipitates were then subjected to Western blotting for detection of HDAC6 and dynein.

HDAC6 [3] = target: T1, HDAC6; details: stated property of control compound; cited from earlier work
MM.1S and RPMI cells = test: Synergy with Velcade/Bortezomib in myeloma cell lines; assay type: cell-based
MM.1S cells [4] = test: Cell cycle profile by flow cytometry (PI staining); assay type: cell-based, human; details: bortezomib 5 nM alone, 24 h; increased from 14.2%
Protocol: […] Cells were then stained with propidium iodine (PI, Sigma) (5 μg/ml) and cell cycle profile was determined using program M software on an Epics flow cytometer (Coulter Immunology, Hialeah, Fla.) (44).

[5] = test system: JNK phosphorylation and caspase/PARP cleavage; test: Western blotting for p21Cip1, p-JNK, caspases and PARP; assay type: cell-based, human; details: MM.1S cells, tubacin 5 μM and/or bortezomib 5 nM, 24 h
Protocol: as §1, §2

MM.1S and RPMI8226 cells = test: [3H]-thymidine uptake of MM cells adherent to BMSCs; assay type: cell-based, human; details: MM cells adherent to BMSCs, 24 h
Protocol: […] DNA synthesis was measured as described above.
After treatment, DNA synthesis was measured by [^3H]-thymidine (Perkin Elmer, Boston Mass.) uptake, as previously described (44). All experiments were performed in quadruplicate.

[6] = test system: MM.1S cells and RPMI cells; test: Inhibition of protein catabolism in myeloma cells; assay type: cell-based; details: FIG. 18
RPMI8226 cells = details: 24 h
Protocol: The inhibitory effect of bortezomib and/or tubacin on MM cell growth was assessed by measuring 3-(4,5-dimethylthiazol-2-yl)-2,5-diphenyl tetrazolium bromide (MTT) dye absorbance, as described previously (33). Cells from 48 h cultures were pulsed with 10 μl of 5 mg/ml MTT to each well for the last 4 h of 48 h cultures, followed by 100 μl isopropanol containing 0.04N HCl. Absorbance was measured at 570 nm using a spectrophotometer (Molecular Devices Corp., Sunnyvale Calif.). All experiments were performed in quadruplicate.

[7] = test system: patients with refractory relapsed MM; details: 202 patients; cited from earlier work
[8] = test system: tubulin acetylation versus lysine acetylation; test: Immunofluorescence assay for acetylated tubulin versus acetylated lysine; assay type: cell-based; details: cells not given
Excerpt: The present invention provides an immunofluorescence-based assay for identifying test agents with HDAC and/or TDAC inhibitory activity. The inventive assay is based on the use of specific antibodies for acetylated tubulin and acetylated lysine (i.e., a marker for acetylated histones). […] As described above, any type of agent, including small molecules, polymers, biomolecules, proteins, peptides, polynucleotides, etc., may be screened using the inventive assay. In certain embodiments, small molecules are screened. In certain particular embodiments, the small molecules are tubacin-like or are tubacin derivatives. In certain embodiments, the small molecules are compounds of the present invention. The test agents may also be small molecules purchased, prepared through traditional synthetic techniques, prepared through combinatorial chemistry techniques, or obtained from historical chemical collections. In certain embodiments, the test agents are biomolecules. In other embodiments, the test agents are proteins or peptides. In yet other embodiments, the test agents are polynucleotides. In certain embodiments, the test agents are polymers.
The assay involves contacting cells with a specific concentration of the test agent under specific conditions. […] There particular parameters may be determined by the operator or scientist conducting the assay as would be appreciated by one of skill in this art. After a determined time of incubation with the test compound, the cells are treated with a first primary antibody directed against acetylated tubulin and a second primary antibody directed against acetylated lysine. […] The signal from each of the secondary antibodies is measured and optionally quantitated to determine the amount of TDAC and HDAC inhibition under the specified conditions with the test agent. Optionally, the extent of inhibition is determined relative to a control in which no test agent was added. In certain embodiments, the secondary antibody is left out and the primary antibodies are uniquely labeled for identification and optionally quantification. […]

acetylation of α-tubulin (HDAC6 [2]): does not affect
SMILES: O=C(O)CCCCCCC(=O)Nc1ccc([C@H]2O[C@@H](CSc3nc(-c4ccccc4)c(-c4ccccc4)o3)C[C@@H](c3ccc(CO)cc3)O2)cc1 [niltubacin, reference compound]
enhancement of cytotoxicity induced by bortezomib (MM.1S cells [1]): does not affect either acetylation of α-tubulin (FIG. 4F) or enhance cytotoxicity

SMILES: CC(/C=C/C(=O)NO)=C\[C@@H](C)C(=O)c1ccc(N(C)C)cc1 [Trichostatin]
inhibition of HDAC6 (HDAC6 [3]): potent inhibitor of both HDAC6 domains

SMILES: Cc1[nH]c2ccccc2c1CCNCc1ccc(/C=C/C(=O)NO)cc1 [LBH589, reference compound]
toxicity and synergy with Bortezomib (MM.1S and RPMI cells; MM.1S cells): toxicity and synergy | toxicity and synergy with Bortezomib (MM.1S and RPMI cells; RPMI-8226 cells): toxicity and synergy

SMILES: CC(C)C[C@H](NC(=O)[C@H](Cc1ccccc1)NC(=O)c1cnccn1)B(O)O [bortezomib]
G2M phase MM.1S cells (MM.1S cells [4]): 39.5% | phosphorylation of JNK and caspase/PARP cleavage [5]: induces only modest phosphorylation of JNK as well as caspase-9, -8, -3 and PARP cleavage | BMSC-induced [3H]-thymidine uptake / MM cell growth with BMSCs, single agent (MM.1S and RPMI8226 cells): inhibits BMSC-induced [^3H]-thymidine uptake in a dose-dependent fashion | inhibition of protein catabolism [6]: potent inhibitors of protein catabolism | RPMI8226 cell death (RPMI8226 cells; 5 nM bortezomib alone): 26% | RPMI8226 cell death (RPMI8226 cells; 10 nM bortezomib alone): 66% | complete and near complete responses [7]: 10% | patients who did not respond [7]: 65% | responses [7]: 35%

SMILES: O=C(CCCCCCC(=O)Nc1ccc(C2OC(CSc3nc(-c4ccccc4)c(-c4ccccc4)o3)CC(c3ccccc3)O2)cc1)NO (centres unmarked) [DHM-Tubacin, des(hydromethyl)-Tubacin]
synergy with Velcade (MM.1S and RPMI cells; MM.1S and RPMI cells): synergy | specificity for tubulin acetylation versus lysine acetylation [8]: specificity

SMILES: O=C1N[C@@H](Cc2ccccc2)C(=O)N2CCC[C@@H]2C(=O)N[C@@H](CCCCCC(=O)[C@@H]2CO2)C(=O)N[C@H]1Cc1ccccc1 [trapoxin] (cyclo(FF[dP][Aoe]))
inhibition of HDAC6 (HDAC6 [3]): does not inhibit HDAC6

Reference: patent publication US10172905B1, “Treatment of protein degradation disorders” (President and Fellows of Harvard College, priority 2005, dated 2019)
